Measured values reported in PMC10636171 (Cell Death & Disease, 2023).

Key:
Test in all cases: HTRF/ADP-Glo kinase selectivity panel
Assay type in all cases: biochemical
Conditions in all cases: 500 nM, read-out: 1D228(%inhibition)@500nM
BTK = biological target: T1, BTK (Homo sapiens, UniProt Q06187)
T1 construct: purchased Invitrogen (c-Met, TRKA, TRKB, TRKC)
Protocol: (§1) The compound was serial diluted from 10 mM stock in DMSO, dilute the test compound to 0.1 mM (200 times the specified test concentration). 2 × ATP & Substrate solution and 2 × kinase & Metal solution were prepared using assay buffer; Transfer 25 nL compound to 384 assay plate by Echo 655; After centrifugation, add 2.5 μL 2 × kinase/metal ion solution 384 assay plate, and incubate at 25 °C for 10 min. 2 × XL665 & Antibody solution were prepared with detection buffer; 5 μL of Kinase Detection Reagent was added to the well, and incubated for 60 min at 25 °C; The fluorescence signals of 620 nm (Cryptate) and 665 nm (XL665) were read by microtiter plate reader; […]

EGFR T790M L858R = biological target: T2, EGFR T790M L858R (Homo sapiens, UniProt P00533, L858R/T790M)
T2 construct: purchased Invitrogen (c-Met, TRKA, TRKB, TRKC)
Protocol: as §1

FLT4 = biological target: T3, FLT4 (Homo sapiens, UniProt P35916)
T3 construct: purchased Invitrogen (c-Met, TRKA, TRKB, TRKC)
Protocol: as §1

HCK = biological target: T4, HCK (Homo sapiens, UniProt P08631)
T4 construct: purchased Invitrogen (c-Met, TRKA, TRKB, TRKC)
Protocol: as §1

FYN [b] = biological target: T5, FYN [b] (Homo sapiens, UniProt P06241)
T5 construct: purchased Invitrogen (c-Met, TRKA, TRKB, TRKC)
Protocol: as §1

EPHA3 = biological target: T6, EPHA3 (Homo sapiens, UniProt P29320)
T6 construct: purchased Invitrogen (c-Met, TRKA, TRKB, TRKC)
Protocol: as §1

PYK2 = biological target: T7, PYK2 (Homo sapiens, UniProt Q14289)
T7 construct: purchased Invitrogen (c-Met, TRKA, TRKB, TRKC)
T7 sequence (Q14289 whole entry): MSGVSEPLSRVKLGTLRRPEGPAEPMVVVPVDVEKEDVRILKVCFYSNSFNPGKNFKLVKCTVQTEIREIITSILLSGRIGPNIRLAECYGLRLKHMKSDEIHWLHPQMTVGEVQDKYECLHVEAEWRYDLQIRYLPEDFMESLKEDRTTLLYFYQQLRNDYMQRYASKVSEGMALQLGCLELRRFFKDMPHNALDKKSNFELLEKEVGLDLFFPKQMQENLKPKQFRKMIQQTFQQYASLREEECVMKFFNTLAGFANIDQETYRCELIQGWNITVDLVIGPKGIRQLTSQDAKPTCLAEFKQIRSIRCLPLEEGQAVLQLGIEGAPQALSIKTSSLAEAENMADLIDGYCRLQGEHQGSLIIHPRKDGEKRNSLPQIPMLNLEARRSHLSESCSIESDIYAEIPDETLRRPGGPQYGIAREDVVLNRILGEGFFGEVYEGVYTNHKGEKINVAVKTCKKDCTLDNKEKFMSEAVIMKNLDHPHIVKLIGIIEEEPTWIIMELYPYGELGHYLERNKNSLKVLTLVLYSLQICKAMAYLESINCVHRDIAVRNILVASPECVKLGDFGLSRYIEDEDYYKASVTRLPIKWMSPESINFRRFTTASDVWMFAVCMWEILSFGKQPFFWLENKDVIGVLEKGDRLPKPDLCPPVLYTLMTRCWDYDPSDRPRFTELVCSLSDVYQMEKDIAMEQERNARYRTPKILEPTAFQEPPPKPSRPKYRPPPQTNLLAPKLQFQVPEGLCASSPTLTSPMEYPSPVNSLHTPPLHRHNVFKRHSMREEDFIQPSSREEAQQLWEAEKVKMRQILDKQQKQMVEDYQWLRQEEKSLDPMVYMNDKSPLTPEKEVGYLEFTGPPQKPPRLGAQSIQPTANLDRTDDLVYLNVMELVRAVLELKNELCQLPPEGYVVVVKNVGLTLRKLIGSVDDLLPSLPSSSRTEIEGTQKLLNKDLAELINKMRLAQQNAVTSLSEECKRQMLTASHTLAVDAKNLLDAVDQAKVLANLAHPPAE
Protocol: as §1

HER2 = biological target: T8, HER2 (Homo sapiens, UniProt P04626)
T8 construct: purchased Invitrogen (c-Met, TRKA, TRKB, TRKC)
Protocol: as §1

ABL1 = biological target: T9, ABL1 (Homo sapiens, UniProt P00519)
T9 construct: purchased Invitrogen (c-Met, TRKA, TRKB, TRKC)
Protocol: as §1

TYRO3 = biological target: T10, TYRO3 (Homo sapiens, UniProt Q06418)
T10 construct: purchased Invitrogen (c-Met, TRKA, TRKB, TRKC)
T10 sequence (Q06418 41-890): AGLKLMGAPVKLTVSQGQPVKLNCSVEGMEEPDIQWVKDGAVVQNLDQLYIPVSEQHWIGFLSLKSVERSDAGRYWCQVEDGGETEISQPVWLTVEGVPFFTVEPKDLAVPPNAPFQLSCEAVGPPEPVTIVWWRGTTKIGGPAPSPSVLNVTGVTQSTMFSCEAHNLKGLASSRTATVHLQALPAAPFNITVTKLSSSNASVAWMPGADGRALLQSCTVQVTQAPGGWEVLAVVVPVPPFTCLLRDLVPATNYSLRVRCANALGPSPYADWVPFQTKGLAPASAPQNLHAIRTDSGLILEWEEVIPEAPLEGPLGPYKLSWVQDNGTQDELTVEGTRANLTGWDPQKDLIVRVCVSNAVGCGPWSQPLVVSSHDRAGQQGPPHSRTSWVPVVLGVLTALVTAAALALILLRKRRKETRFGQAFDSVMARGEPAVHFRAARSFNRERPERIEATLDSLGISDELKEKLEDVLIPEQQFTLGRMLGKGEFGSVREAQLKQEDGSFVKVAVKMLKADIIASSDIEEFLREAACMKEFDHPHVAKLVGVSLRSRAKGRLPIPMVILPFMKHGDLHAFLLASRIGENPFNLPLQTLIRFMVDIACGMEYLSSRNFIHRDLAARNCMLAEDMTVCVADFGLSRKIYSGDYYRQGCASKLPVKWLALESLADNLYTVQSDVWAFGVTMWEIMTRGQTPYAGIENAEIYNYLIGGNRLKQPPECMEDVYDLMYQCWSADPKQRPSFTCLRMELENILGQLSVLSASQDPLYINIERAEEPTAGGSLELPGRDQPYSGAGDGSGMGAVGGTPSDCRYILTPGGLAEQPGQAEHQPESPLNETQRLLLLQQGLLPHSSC
Protocol: as §1

TEC = biological target: T11, TEC (Homo sapiens, UniProt P42680)
T11 construct: purchased Invitrogen (c-Met, TRKA, TRKB, TRKC)
Protocol: as §1

EPHA2 = biological target: T12, EPHA2 (Homo sapiens, UniProt P29317)
T12 construct: purchased Invitrogen (c-Met, TRKA, TRKB, TRKC)
Protocol: as §1

TXK = biological target: T13, TXK (Homo sapiens, UniProt P42681)
T13 construct: purchased Invitrogen (c-Met, TRKA, TRKB, TRKC)
Protocol: as §1

YES = biological target: T14, YES (Homo sapiens, UniProt P07947)
T14 construct: purchased Invitrogen (c-Met, TRKA, TRKB, TRKC)
T14 sequence (P07947 whole entry): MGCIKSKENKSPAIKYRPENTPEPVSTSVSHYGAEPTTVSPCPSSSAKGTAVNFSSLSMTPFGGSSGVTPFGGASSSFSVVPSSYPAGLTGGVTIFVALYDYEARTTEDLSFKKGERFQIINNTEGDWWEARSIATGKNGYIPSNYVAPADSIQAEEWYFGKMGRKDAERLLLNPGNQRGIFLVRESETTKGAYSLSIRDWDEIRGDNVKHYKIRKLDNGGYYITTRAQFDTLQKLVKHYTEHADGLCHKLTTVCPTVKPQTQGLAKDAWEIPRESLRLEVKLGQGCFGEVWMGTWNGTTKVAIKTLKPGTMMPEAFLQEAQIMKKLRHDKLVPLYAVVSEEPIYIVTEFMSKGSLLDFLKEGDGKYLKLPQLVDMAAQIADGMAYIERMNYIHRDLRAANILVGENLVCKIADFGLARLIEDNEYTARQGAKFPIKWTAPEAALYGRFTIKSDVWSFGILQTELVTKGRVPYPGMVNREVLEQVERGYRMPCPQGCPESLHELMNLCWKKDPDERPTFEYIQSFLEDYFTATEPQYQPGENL
Protocol: as §1

BRK = biological target: T15, BRK (Homo sapiens, UniProt Q13882)
T15 construct: purchased Invitrogen (c-Met, TRKA, TRKB, TRKC)
Protocol: as §1

KDR = biological target: T16, KDR (Homo sapiens, UniProt P35968)
T16 construct: purchased Invitrogen (c-Met, TRKA, TRKB, TRKC)
Protocol: as §1

FAK = biological target: T17, FAK (Homo sapiens, UniProt Q05397)
T17 construct: purchased Invitrogen (c-Met, TRKA, TRKB, TRKC)
Protocol: as §1

FGFR1 = biological target: T18, FGFR1 (Homo sapiens, UniProt P11362)
T18 construct: purchased Invitrogen (c-Met, TRKA, TRKB, TRKC)
T18 sequence (P11362 22-822): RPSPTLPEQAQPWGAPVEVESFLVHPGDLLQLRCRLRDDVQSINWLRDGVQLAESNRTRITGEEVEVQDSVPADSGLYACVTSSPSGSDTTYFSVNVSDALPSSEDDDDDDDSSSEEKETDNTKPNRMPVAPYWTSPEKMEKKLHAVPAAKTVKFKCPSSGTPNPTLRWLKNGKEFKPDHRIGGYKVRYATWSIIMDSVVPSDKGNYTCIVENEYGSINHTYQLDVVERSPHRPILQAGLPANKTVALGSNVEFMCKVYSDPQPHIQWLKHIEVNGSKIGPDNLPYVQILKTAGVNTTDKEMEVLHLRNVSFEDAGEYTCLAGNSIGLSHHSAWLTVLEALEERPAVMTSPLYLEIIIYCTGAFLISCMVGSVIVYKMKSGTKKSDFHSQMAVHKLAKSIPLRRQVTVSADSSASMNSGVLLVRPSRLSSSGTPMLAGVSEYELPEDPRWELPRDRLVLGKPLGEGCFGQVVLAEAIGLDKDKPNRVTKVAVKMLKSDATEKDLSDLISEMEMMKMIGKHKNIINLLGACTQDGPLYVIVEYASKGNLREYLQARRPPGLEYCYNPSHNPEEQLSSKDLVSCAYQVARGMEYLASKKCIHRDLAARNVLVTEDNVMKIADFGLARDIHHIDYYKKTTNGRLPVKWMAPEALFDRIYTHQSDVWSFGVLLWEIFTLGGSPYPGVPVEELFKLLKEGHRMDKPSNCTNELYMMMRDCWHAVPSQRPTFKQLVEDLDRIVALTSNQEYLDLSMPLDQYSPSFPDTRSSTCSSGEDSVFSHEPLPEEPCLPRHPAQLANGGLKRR
Protocol: as §1

FGFR4 = biological target: T19, FGFR4 (Homo sapiens, UniProt P22455)
T19 construct: purchased Invitrogen (c-Met, TRKA, TRKB, TRKC)
Protocol: as §1

EPHA4 = biological target: T20, EPHA4 (Homo sapiens, UniProt P54764)
T20 construct: purchased Invitrogen (c-Met, TRKA, TRKB, TRKC)
Protocol: as §1

MET = biological target: T21, MET (Homo sapiens, UniProt P08581)
T21 construct: purchased Invitrogen (c-Met, TRKA, TRKB, TRKC)
Protocol: as §1

EPHA5 = biological target: T22, EPHA5 (Homo sapiens, UniProt P54756)
T22 construct: purchased Invitrogen (c-Met, TRKA, TRKB, TRKC)
T22 sequence (P54756 25-1037): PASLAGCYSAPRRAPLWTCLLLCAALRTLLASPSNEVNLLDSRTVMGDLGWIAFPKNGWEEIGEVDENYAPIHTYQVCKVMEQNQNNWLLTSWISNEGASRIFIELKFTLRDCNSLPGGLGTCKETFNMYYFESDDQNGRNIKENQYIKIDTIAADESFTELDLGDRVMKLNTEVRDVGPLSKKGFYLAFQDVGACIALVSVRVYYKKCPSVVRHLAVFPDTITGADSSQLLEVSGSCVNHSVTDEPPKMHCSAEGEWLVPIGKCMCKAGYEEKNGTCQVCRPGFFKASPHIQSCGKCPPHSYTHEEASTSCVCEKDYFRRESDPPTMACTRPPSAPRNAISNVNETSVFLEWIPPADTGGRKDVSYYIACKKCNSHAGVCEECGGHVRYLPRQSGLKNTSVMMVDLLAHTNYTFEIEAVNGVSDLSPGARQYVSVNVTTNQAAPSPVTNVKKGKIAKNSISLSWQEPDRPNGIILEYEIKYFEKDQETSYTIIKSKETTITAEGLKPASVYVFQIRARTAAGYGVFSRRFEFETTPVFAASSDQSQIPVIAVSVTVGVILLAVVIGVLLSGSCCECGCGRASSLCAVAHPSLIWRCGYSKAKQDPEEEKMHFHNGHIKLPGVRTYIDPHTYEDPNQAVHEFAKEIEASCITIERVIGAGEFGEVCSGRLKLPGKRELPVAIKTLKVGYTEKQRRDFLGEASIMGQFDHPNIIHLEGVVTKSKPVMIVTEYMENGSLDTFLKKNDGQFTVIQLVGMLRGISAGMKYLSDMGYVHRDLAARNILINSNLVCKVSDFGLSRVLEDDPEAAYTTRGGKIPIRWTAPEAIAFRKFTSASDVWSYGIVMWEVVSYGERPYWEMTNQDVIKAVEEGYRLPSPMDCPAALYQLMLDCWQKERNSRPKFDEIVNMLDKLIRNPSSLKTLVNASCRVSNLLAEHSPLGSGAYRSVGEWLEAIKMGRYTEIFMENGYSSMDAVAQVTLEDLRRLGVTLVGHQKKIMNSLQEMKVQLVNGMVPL
Protocol: as §1

DDR1 = biological target: T23, DDR1 (Homo sapiens, UniProt Q08345)
T23 construct: purchased Invitrogen (c-Met, TRKA, TRKB, TRKC)
Protocol: as §1

FGFR3 = biological target: T24, FGFR3 (Homo sapiens, UniProt P22607)
T24 construct: purchased Invitrogen (c-Met, TRKA, TRKB, TRKC)
Protocol: as §1

DDR2 = biological target: T25, DDR2 (Homo sapiens, UniProt Q16832)
T25 construct: purchased Invitrogen (c-Met, TRKA, TRKB, TRKC)
Protocol: as §1

LCK = biological target: T26, LCK (Homo sapiens, UniProt P06239)
T26 construct: purchased Invitrogen (c-Met, TRKA, TRKB, TRKC)
Protocol: as §1

INSR = biological target: T27, INSR (Homo sapiens, UniProt P06213)
T27 construct: purchased Invitrogen (c-Met, TRKA, TRKB, TRKC)
Protocol: as §1

EPHB1 = biological target: T28, EPHB1 (Homo sapiens, UniProt P54762)
T28 construct: purchased Invitrogen (c-Met, TRKA, TRKB, TRKC)
Protocol: as §1

EGFR = biological target: T29, EGFR (Homo sapiens, UniProt P00533)
T29 construct: purchased Invitrogen (c-Met, TRKA, TRKB, TRKC)
Protocol: as §1

TRKB = biological target: T30, TRKB (Homo sapiens, UniProt Q16620)
T30 construct: purchased Invitrogen
T30 sequence (Q16620 32-822): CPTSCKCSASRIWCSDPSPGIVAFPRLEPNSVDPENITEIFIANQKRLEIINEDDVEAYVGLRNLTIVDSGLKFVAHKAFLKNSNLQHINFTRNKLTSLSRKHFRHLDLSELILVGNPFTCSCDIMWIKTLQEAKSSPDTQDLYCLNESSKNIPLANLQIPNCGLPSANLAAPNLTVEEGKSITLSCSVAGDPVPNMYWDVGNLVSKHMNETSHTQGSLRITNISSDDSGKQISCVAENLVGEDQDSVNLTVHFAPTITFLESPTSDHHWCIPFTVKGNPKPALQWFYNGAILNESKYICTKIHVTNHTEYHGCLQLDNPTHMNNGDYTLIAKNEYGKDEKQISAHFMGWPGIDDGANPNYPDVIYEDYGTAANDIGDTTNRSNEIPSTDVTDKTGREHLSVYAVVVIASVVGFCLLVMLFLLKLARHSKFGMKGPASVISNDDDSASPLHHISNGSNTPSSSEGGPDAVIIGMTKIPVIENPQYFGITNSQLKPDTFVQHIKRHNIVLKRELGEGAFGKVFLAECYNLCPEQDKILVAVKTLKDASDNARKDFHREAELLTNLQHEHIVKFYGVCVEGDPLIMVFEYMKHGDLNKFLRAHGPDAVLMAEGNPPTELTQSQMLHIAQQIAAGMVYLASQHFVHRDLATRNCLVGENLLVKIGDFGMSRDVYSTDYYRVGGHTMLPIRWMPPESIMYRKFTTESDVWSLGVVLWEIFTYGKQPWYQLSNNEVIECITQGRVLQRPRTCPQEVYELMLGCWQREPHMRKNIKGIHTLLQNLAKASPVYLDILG
Protocol: as §1

Her4 = biological target: T31, Her4 (Homo sapiens, UniProt Q15303)
T31 construct: purchased Invitrogen (c-Met, TRKA, TRKB, TRKC)
Protocol: as §1

JAK2 = biological target: T32, JAK2 (Homo sapiens, UniProt O60674)
T32 construct: purchased Invitrogen (c-Met, TRKA, TRKB, TRKC)
Protocol: as §1

ALK = biological target: T33, ALK (Homo sapiens, UniProt Q9UM73)
T33 construct: purchased Invitrogen (c-Met, TRKA, TRKB, TRKC)
Protocol: as §1

FLT3 = biological target: T34, FLT3 (Homo sapiens, UniProt P36888)
T34 construct: purchased Invitrogen (c-Met, TRKA, TRKB, TRKC)
Protocol: as §1

LYNa = biological target: T35, LYNa (Homo sapiens, UniProt P07948)
T35 construct: purchased Invitrogen (c-Met, TRKA, TRKB, TRKC)
Protocol: as §1

EPHA8 = biological target: T36, EPHA8 (Homo sapiens, UniProt P29322)
T36 construct: purchased Invitrogen (c-Met, TRKA, TRKB, TRKC)
Protocol: as §1

ITK = biological target: T37, ITK (Homo sapiens, UniProt Q08881)
T37 construct: purchased Invitrogen (c-Met, TRKA, TRKB, TRKC)
Protocol: as §1

FGFR2 = biological target: T38, FGFR2 (Homo sapiens, UniProt P21802)
T38 construct: purchased Invitrogen (c-Met, TRKA, TRKB, TRKC)
Protocol: as §1

FER = biological target: T39, FER (Homo sapiens, UniProt P16591)
T39 construct: purchased Invitrogen (c-Met, TRKA, TRKB, TRKC)
Protocol: as §1

ACK = biological target: T40, ACK (Homo sapiens, UniProt Q07912)
T40 construct: purchased Invitrogen (c-Met, TRKA, TRKB, TRKC)
Protocol: as §1

[2H][C@@](C)(c1cccc(-c2ncc(OCC3CCN(C)CC3)cn2)c1)n1nc(-c2cccc(C#N)c2)ccc1=O [1D228]
inhibition at 0.5 µM (BTK): -3.81% | inhibition at 0.5 µM (EGFR T790M L858R): 11.1% | inhibition at 0.5 µM (FLT4): -3.03% | inhibition at 0.5 µM (HCK): -4.06% | inhibition at 0.5 µM (FYN [b]): 10.9% | inhibition at 0.5 µM (EPHA3): -11.8% | inhibition at 0.5 µM (PYK2): 1.14% | inhibition at 0.5 µM (HER2): 8.78% | inhibition at 0.5 µM (ABL1): 6.37% | inhibition at 0.5 µM (TYRO3): 4.2% | inhibition at 0.5 µM (TEC): 8.29% | inhibition at 0.5 µM (EPHA2): -0.798% | inhibition at 0.5 µM (TXK): 1.29% | inhibition at 0.5 µM (YES): 11.3% | inhibition at 0.5 µM (BRK): 3.19% | inhibition at 0.5 µM (KDR): 5.62% | inhibition at 0.5 µM (FAK): -9.58% | inhibition at 0.5 µM (FGFR1): 1.72% | inhibition at 0.5 µM (FGFR4): -0.37% | inhibition at 0.5 µM (EPHA4): -14.7% | inhibition at 0.5 µM (MET): 98.4% | inhibition at 0.5 µM (EPHA5): 3.74% | inhibition at 0.5 µM (DDR1): -11.8% | inhibition at 0.5 µM (FGFR3): 3.05% | inhibition at 0.5 µM (DDR2): -3.98% | inhibition at 0.5 µM (LCK): 5.21% | inhibition at 0.5 µM (INSR): 18.6% | inhibition at 0.5 µM (EPHB1): -6.48% | inhibition at 0.5 µM (EGFR): 1.17% | inhibition at 0.5 µM (TRKB): 97.1% | inhibition at 0.5 µM (Her4): 2.21% | inhibition at 0.5 µM (JAK2): 1.82% | inhibition at 0.5 µM (ALK): 89.5% | inhibition at 0.5 µM (FLT3): 17.9% | inhibition at 0.5 µM (LYNa): 27.3% | inhibition at 0.5 µM (EPHA8): 8.52% | inhibition at 0.5 µM (ITK): 1.6% | inhibition at 0.5 µM (FGFR2): 1.04% | inhibition at 0.5 µM (FER): -13.3% | inhibition at 0.5 µM (ACK): 1.96%
